Source: patent US8288396B2, “Pyrimidopyrimidoindazole derivative” (MSDKK, priority 2009, dated 2012)
Where a name gives a salt, the structure may show the parent alone.

Experiments:
Wee1 kinase = target: T1, Wee1 kinase (Homo sapiens, UniProt P30291); assay: Wee1 kinase inhibitory effect (Pharmacological Test 1); format: biochemical; conditions: GST-tagged Wee1 kinase, Poly(Lys, Tyr) substrate, 10 μM ATP, 30° C. for 30 minutes
T1 construct: made in house; host or cells: Sf9 insect cells (recombinant baculovirus)
Excerpt: Pharmacological Test 1 (Wee1 Kinase Inhibitory Effect)
(1) Purification of Wee1 Kinase
A cDNA of Wee1 kinase with […] (GST) fused at the amino terminal thereof was inserted into a baculovirus expression vector to construct a recombinant baculovirus, with which cells of an insect cell line Sf9 were infected to overexpress the target protein. The infected cells were collected and lysed, and then the GST-tagged Wee1 kinase protein was adsorbed to a glutathione column and eluted from the column with glutathione, and the active fraction was desalted in a desalting column to give a purified enzyme.
(2) Measurement of Wee1 Kinase Activity
In measurement of the Wee1 kinase activity, a synthetic peptide, Poly(Lys, Tyr) hydrobromide (Lys:Tyr (4:1)) purchased from Sigma was used as the substrate.
The amount of the reaction mixture was 21.1 μL; and the composition of the reaction buffer was 50 mM Tris-HCl buffer (pH 7.4)/10 mM magnesium chloride/1 mM dithiothreitol. The purified Wee1 kinase, 2.5 μg of the substrate peptide, 10 μM of non-labeled adenosine triphosphate (ATP) and 1 μCi of [γ-^33P]-labeled ATP (2500 Ci/mmol or more) were added to the reaction buffer, and the resulting mixture was incubated at 30° C. for 30 minutes. Thereafter, 10 μL of 350 mM phosphate buffer was added to the reaction system to stop the reaction. The substrate peptide was adsorbed on a P81 paper filter 96-well plate and the plate was washed several times with 130 mM phosphate buffer, and the radioactivity thereof was counted using a liquid scintillation counter. The [γ-^33P]-labeled ATP was purchased from Amersham Bioscience, Ltd.
The addition of a test compound to the reaction system was carried out by preparing a series of dilutions of the compound with dimethyl sulfoxide (DMSO) and adding 1.1 μL of each dilution to the reaction system. As a control, 1.1 μL of DMSO was added to the reaction system.

[1] = system: Cdc2 (Cdk1) tyrosine-15 phosphorylation; assay: Inhibitory effect on Cdc2 (Cdk1) tyrosine-15 phosphorylation in NCI-H1299 cells (Pharmacological Test 2); format: cell-based; conditions: Homo sapiens, camptothecin 200 nM 16 hours, then test compound with nocodazole 8 hours, ELISA, read-out: Cdc2-Y15 Phosphorylation-Inhibitory Effect (H1299, +camptothecin) (EC50)
Excerpt: Pharmacological Test 2 (Method for Determining Drug Effect Using Cells (Inhibitory Effect on Cdc2 (Cdk1) Tyrosine-15 Phosphorylation))
Fetal bovine serum (FBS) was purchased from Morgate, Inc.; an RPMI-1640 medium and a DMEM medium were purchased from Invitrogen, Inc.; camptothecin was purchased from Sigma Co.; gemcitabine was purchased from Eli Lilly Japan K.K.; nocodazole and protease inhibitor cocktail were purchased from Sigma Co.; a rabbit anti-Cdc2 antibody and a mouse anti-Cdc2 antibody were purchased from Santa Cruz Biotechnology, Inc.; a rabbit anti-tyrosine-15-phosphorylated Cdc2 antibody and a horseradish peroxidase-labeled anti-mouse IgG antibody were purchased from Cell Signaling Technology, Inc.; and Sure Blue Reserve TMB peroxidase substrate was purchased from Kirkegaard & Perry Laboratories, Inc.
A human non-small cell lung cancer cell line (NCI-H1299) and a human colon cancer cell line (WiDr) can be obtained from American Type Culture Collection (ATCC).
In the method using NCI-H1299 cells, the cells were suspended in an RPMI-1640 medium supplemented with 10% FBS, and 100 μL of the resulting cell suspension was dispensed in a Nunclon Delta treated 96-well plastic plate purchased from Nunc, Inc. at a density of 2000 cells per well, and the plate was incubated overnight at 37° C. under an atmosphere of 5% CO2 and 95% air. Camptothecin was dissolved in dimethyl sulfoxide (DMSO) and further the resulting solution was diluted with an RPMI-1640 medium supplemented with 10% FBS. Then, 50 μL of the diluted solution was added to each well of the plate in which the cells were seeded in advance such that the final concentration of camptothecin was 200 nM, and the plate was incubated at 37° C. under an atmosphere of 5% CO2 and 95% air for 16 hours. A test compound was serially diluted with DMSO, and further diluted with an RPMI-1640 medium supplemented with 10% FBS containing 4000 nM nocodazole. Then, 50 μL of the test compound solution was added to each well of the plate in which the cells treated with camptothecin were seeded, and the plate was incubated at 37° C. under an atmosphere of 5% CO2 and 95% air for 8 hours. Then, the culture medium was removed from each well and 100 μL of a cell lysis buffer was added to each well, and the plate was shaken at 4° C. for 2 hours, and thereafter the liquid in the plate was frozen at −80° C. and then thawed, which was used as a lysed cell solution. Cdc2 and tyrosine-15-phosphorylated Cdc2 in this lysed cell solution were measured by an enzyme-linked immunosorbent assay (ELISA method), and a ratio of tyrosine-15-phosphorylated Cdc2 to Cdc2 was calculated to determine a 50% effective concentration (EC50, nM) of the test compound for inhibition of phosphorylation in cells. The cell lysis buffer as used herein is an aqueous solution containing 20 mM HEPES (pH 7.5), 150 mM sodium chloride, 1 mM disodium ethylenediamine tetraacetate, 0.1% polyoxyethylene (10) octylphenyl ether, 1% protease inhibitor cocktail, 1 mM dithiothreitol, 2 mM sodium orthovanadate, 10 mM sodium fluoride and 10 mM glycerol diphosphate. The measurement of Cdc2 by the ELISA method was carried out as follows. 50 μL of a solution of a rabbit anti-Cdc2 antibody obtained by diluting the antibody to 200 times with 50 mM carbonate-bicarbonate buffer (pH 9.6) was dispensed into each well of a 96-well Maxisorb immunoplate purchased from Nunc, Inc., and the immunoplate was let stand overnight at 4° C. to immobilize the antibody thereto. Subsequently, each well was washed three times with phosphate buffered saline (PBS), and 300 μL of PBS containing 5% bovine serum albumin (5% BSA/PBS) was added to each well, and then, the immunoplate was let stand at room temperature for 2 hours. […]

T1 sequence (P30291 whole entry): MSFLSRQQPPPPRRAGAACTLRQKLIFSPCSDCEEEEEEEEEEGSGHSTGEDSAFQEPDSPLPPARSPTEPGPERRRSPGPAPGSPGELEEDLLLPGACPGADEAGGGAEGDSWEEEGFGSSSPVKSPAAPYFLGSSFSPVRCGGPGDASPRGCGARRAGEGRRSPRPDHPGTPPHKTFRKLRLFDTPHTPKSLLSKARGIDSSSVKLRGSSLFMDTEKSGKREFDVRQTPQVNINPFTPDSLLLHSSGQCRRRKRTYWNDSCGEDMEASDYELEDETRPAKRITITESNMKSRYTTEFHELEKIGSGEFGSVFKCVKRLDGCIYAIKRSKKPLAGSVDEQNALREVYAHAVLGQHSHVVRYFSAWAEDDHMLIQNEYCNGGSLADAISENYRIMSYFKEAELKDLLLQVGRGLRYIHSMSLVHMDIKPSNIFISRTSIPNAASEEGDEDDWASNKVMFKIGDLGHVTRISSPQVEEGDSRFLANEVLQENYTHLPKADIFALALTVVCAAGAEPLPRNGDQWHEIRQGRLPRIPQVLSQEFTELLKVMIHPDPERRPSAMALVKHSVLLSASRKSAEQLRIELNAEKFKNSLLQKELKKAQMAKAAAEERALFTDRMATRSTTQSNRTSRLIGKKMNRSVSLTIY

SMILES	IC50 (Wee1 kinase) [µM]	EC50 [1] [µM]
CN1CCc2ccc(Nc3ncc4c(=O)n5c(nc4n3)c3ccccc3n5-c3ncccn3)cc2C1 [Example 101, 2-[(2-methyl-1,2,3,4-tetrahydroisoquinolin-7-yl)amino]-7-(pyrimidin-2-yl)pyrimido[4′,5′:4,5]pyrimido[1,2-b]indazol-5(7H)-one]	0.0038	0.043
CN1CCN(c2ccc(Nc3ncc4c(=O)n5c(nc4n3)c3ccccc3n5-c3ccoc3)cc2)CC1 [Example 147, 7-(furan-3-yl)-2-{[4-(4-methylpiperazin-1-yl)phenyl]amino}pyrimido[4′,5′:4,5]pyrimido[1,2-b]indazol-5(7H)-one]	0.0058	0.17
CN1CCN(c2ccc(Nc3ncc4c(=O)n5c(nc4n3)c3ccccc3n5-c3ccccn3)cc2)CC1 [Example 23, 2-{[4-(4-methylpiperazin-1-yl)phenyl]amino}-7-(pyridin-2-yl)pyrimido[4′,5′:4,5]pyrimido[1,2-b]indazol-5(7H)-one]	0.03	–
CN(C)CCN1CCOc2cc(Nc3ncc4c(=O)n5c(nc4n3)c3ccccc3n5-c3nccs3)ccc21 [Example 143, 2-({4-[2-(dimethylamino)ethyl]-3,4-dihydro-2H-1,4-benzoxazin-7-yl}amino)-7-(1,3-thiazol-2-yl)pyrimido[4′,5′:4,5]pyrimido[1,2-b]indazol-5(7H)-one]	0.015	0.19
Cc1cc(Nc2ncc3c(=O)n4c(nc3n2)c2ccccc2n4-c2ncccn2)ccc1OCCN(C)C [Example 90, 2-({4-[2-(dimethylamino)ethoxy]-3-methylphenyl}amino)-7-(pyrimidin-2-yl)pyrimido[4′,5′:4,5]pyrimido[1,2-b]indazol-5(7H)-one]	0.03	0.25
CN1CCN(c2ccc(Nc3ncc4c(=O)n5c(nc4n3)c3ccccc3n5-c3ncccn3)cc2)CC1 [Example 62, 2-{[4-(4-methylpiperazin-1-yl)phenyl]amino}-7-(pyrimidin-2-yl)pyrimido[4′,5′:4,5]pyrimido[1,2-b]indazol-5(7H)-one]	0.038	–
CN(C)[C@H]1CCN(c2ccc(Nc3ncc4c(=O)n5c(nc4n3)c3ccccc3n5-c3ncccn3)cc2)C1 [Example 79, 2-({4-[(3S)-3-(dimethylamino)pyrolidin-1-yl]phenyl}amino)-7-(pyrimidin-2-yl)pyrimido[4′,5′:4,5]pyrimido[1,2-b]indazol-5(7H)-one]	0.024	0.37
CN1CCN(c2ccc(Nc3ncc4c(=O)n5c(nc4n3)c3ccccc3n5-c3cscn3)cc2)CC1 [Example 146, 2-{[4-(4-methylpiperazin-1-yl)phenyl]amino}-7-(1,3-thiazol-4-yl)pyrimido[4′,5′:4,5]pyrimido[1,2-b]indazol-5(7H)-one]	0.013	–
CN1CCc2ccc(Nc3ncc4c(=O)n5c(nc4n3)c3ccccc3n5-c3nccs3)cc2C1 [Example 137, 2-[(2-methyl-1,2,3,4-tetrahydroisoquinolin-7-yl)amino]-7-(1,3-thiazol-2-yl)pyrimido[4′,5′:4,5]pyrimido[1,2-b]indazol-5(7H)-one]	0.0061	0.017
Cc1cc(Nc2ncc3c(=O)n4c(nc3n2)c2ccccc2n4-c2ccsc2)ccc1N1CCN(C)CC1 [Example 55, 2-{[3-methyl-4-(4-methylpiperazin-1-yl)phenyl]amino}-7-(3-thienyl)pyrimido[4′,5′:4,5]pyrimido[1,2-b]indazol-5(7H)-one]	0.013	–
CN(C)CCc1ccc(Nc2ncc3c(=O)n4c(nc3n2)c2ccccc2n4-c2ncccn2)cc1 [Example 92, 2-({4-[2-(dimethylamino)ethyl]phenyl}amino)-7-(pyrimidin-2-yl)pyrimido[4′,5′:4,5]pyrimido[1,2-b]indazol-5(7H)-one]	0.046	–
CN1CCN(c2ccc(Nc3ncc4c(=O)n5c(nc4n3)c3ccc(O)cc3n5-c3ccccn3)cc2)CC1 [Example 150, 9-hydroxy-2-{[4-(4-methylpiperazin-1-yl)phenyl]amino}-7-(pyridin-2-yl)pyrimido[4′,5′:4,5]pyrimido[1,2-b]indazol-5(7H)-one trifluoroacetate]	0.0086	–
CN1CCc2cc(Nc3ncc4c(=O)n5c(nc4n3)c3ccccc3n5-c3ncccn3)ccc2C1 [Example 100, 2-[(2-methyl-1,2,3,4-tetrahydroisoquinolin-6-yl)amino]-7-(pyrimidin-2-yl)pyrimido[4′,5′:4,5]pyrimido[1,2-b]indazol-5(7H)-one]	0.0051	0.052
Cc1cc(Nc2ncc3c(=O)n4c(nc3n2)c2ccccc2n4-c2ncccn2)ccc1N1CCN(C)CC1 [Example 61, 2-{[3-methyl-4-(4-methylpiperazin-1-yl)phenyl]amino}-7-(pyrimidin-2-yl)pyrimido[4′,5′:4,5]pyrimido[1,2-b]indazol-5(7H)-one]	0.012	0.13
CN(C)CCCOc1ccc(Nc2ncc3c(=O)n4c(nc3n2)c2ccccc2n4-c2nccs2)cc1 [Example 121, 2-({4-[3-(dimethylamino)propoxy]phenyl}amino)-7-(1,3-thiazol-2-yl)pyrimido[4′,5′:4,5]pyrimido[1,2-b]indazol-5(7H)-one]	0.023	–
CN(C)CCN1CCc2cc(Nc3ncc4c(=O)n5c(nc4n3)c3ccccc3n5-c3nccs3)ccc21 [Example 144, 2-({1-[2-(dimethylamino)ethyl]-2,3-dihydro-1H-indol-5-yl}amino)-7-(1,3-thiazol-2-yl)pyrimido[4′,5′:4,5]pyrimido[1,2-b]indazol-5(7H)-one]	0.015	0.19
CN1Cc2ccc(Nc3ncc4c(=O)n5c(nc4n3)c3ccccc3n5-c3ncccn3)cc2C1 [Example 102, 2-[(2-methyl-2,3-dihydro-1H-isoindol-5-yl)amino]-7-(pyrimidin-2-yl)pyrimido[4′,5′:4,5]pyrimido[1,2-b]indazol-5(7H)-one]	0.019	–
CN(C)Cc1ccc(Nc2ncc3c(=O)n4c(nc3n2)c2ccccc2n4-c2ncccn2)cc1 [Example 91, 2-({-4-[(dimethylamino)methyl]phenyl}amino)-7-(pyrimidin-2-yl)pyrimido[4′,5′:4,5]pyrimido[1,2-b]indazol-5(7H)-one]	0.034	–
CN1CCC(C)(c2ccc(Nc3ncc4c(=O)n5c(nc4n3)c3ccccc3n5-c3ncccn3)cc2)CC1 [Example 88, 2-{[4-(1,4-dimethylpiperidin-4-yl)phenyl]amino}-7-(pyrimidin-2-yl)pyrimido[4′,5′:4,5]pyrimido[1,2-b]indazol-5(7H)-one]	0.026	–
